ChEMBL document CHEMBL5376002, “A Hybrid Antimicrobial Peptide Targeting Staphylococcus aureus with a Dual Function of Inhibiting Quorum Sensing Signaling and an Antibacterial Effect” (J Med Chem, 2023)
Calls of active or inactive are those of the source. The calls are words filed in the database; no cut-off is given here.

Columns and labels:
[1] = tested on: Staphylococcus saprophyticus; test: Antibacterial activity against Staphylococcus saprophyticus ATCC BAA-750 assessed as inhibition of bacterial growth incubated for 18 to 24 hrs; format: functional; conditions: time 18-24 hrs
Streptococcus mutans [2] = test: Antibacterial activity against Streptococcus mutans ATCC 25175 assessed as inhibition of bacterial growth incubated for 18 to 24 hrs; format: functional; conditions: time 18-24 hrs
Staphylococcus aureus [3] = test: Antibacterial activity against Staphylococcus aureus ATCC 12600 assessed as inhibition of bacterial growth incubated for 18 to 24 hrs; format: functional; conditions: time 18-24 hrs
Staphylococcus aureus [4] = test: Antibacterial activity against Staphylococcus aureus ATCC 6538p assessed as inhibition of bacterial growth incubated for 18 to 24 hrs; format: functional; conditions: time 18-24 hrs
RAW264.7 [5] = test: Cytotoxicity against mouse RAW264.7 cells assessed as cell viability upto 125 uM incubated for 48 hrs by MTT assay; format: functional, cell-based
Staphylococcus aureus [6] = test: Bactericidal activity against Staphylococcus aureus ATCC 43300 assessed as inhibition of bacterial growth incubated for 18 to 24 hrs; format: functional; conditions: time 18-24 hrs
Staphylococcus aureus [7] = test: Antibacterial activity against Staphylococcus aureus ATCC 43300 assessed as inhibition of bacterial growth incubated for 18 to 24 hrs; format: functional; conditions: time 18-24 hrs
Streptococcus mutans [8] = test: Antibacterial activity against Streptococcus mutans UA159 assessed as inhibition of bacterial growth incubated for 18 to 24 hrs; format: functional; conditions: time 18-24 hrs
Streptococcus mutans [9] = test: Bactericidal activity against Streptococcus mutans ATCC 25175 assessed as inhibition of bacterial growth incubated for 18 to 24 hrs; format: functional; conditions: time 18-24 hrs
Staphylococcus aureus [10] = test: Bactericidal activity against Staphylococcus aureus ATCC 12600 assessed as inhibition of bacterial growth incubated for 18 to 24 hrs; format: functional; conditions: time 18-24 hrs
[11] = tested on: Staphylococcus epidermidis; test: Bactericidal activity against Staphylococcus epidermidis ATCC 12228 assessed as inhibition of bacterial growth incubated for 18 to 24 hrs; format: functional; conditions: time 18-24 hrs
[12] = tested on: Staphylococcus saprophyticus; test: Bactericidal activity against Staphylococcus saprophyticus ATCC BAA-750 assessed as inhibition of bacterial growth incubated for 18 to 24 hrs; format: functional; conditions: time 18-24 hrs
Staphylococcus aureus [13] = test: Bactericidal activity against Staphylococcus aureus ATCC 6538p assessed as inhibition of bacterial growth incubated for 18 to 24 hrs; format: functional; conditions: time 18-24 hrs
Escherichia coli [14] = test: Bactericidal activity against Escherichia coli ATCC 25922 assessed as inhibition of bacterial growth incubated for 18 to 24 hrs; format: functional; conditions: time 18-24 hrs
Escherichia coli [15] = test: Antibacterial activity against Escherichia coli ATCC 25922 assessed as inhibition of bacterial growth incubated for 18 to 24 hrs; format: functional; conditions: time 18-24 hrs
Streptococcus mutans [16] = test: Bactericidal activity against Streptococcus mutans UA159 assessed as inhibition of bacterial growth incubated for 18 to 24 hrs; format: functional; conditions: time 18-24 hrs
[17] = tested on: Staphylococcus epidermidis; test: Antibacterial activity against Staphylococcus epidermidis ATCC 12228 assessed as inhibition of bacterial growth incubated for 18 to 24 hrs; format: functional; conditions: time 18-24 hrs
RAW264.7 [18] = test: Cytotoxicity against mouse RAW264.7 cells assessed as cell viability incubated for 48 hrs by MTT assay; format: functional
Streptococcus pneumoniae [19] = test: Bactericidal activity against Streptococcus pneumoniae ATCC 49619 assessed as inhibition of bacterial growth incubated for 18 to 24 hrs; format: functional; conditions: time 18-24 hrs
Streptococcus pneumoniae [20] = test: Antibacterial activity against Streptococcus pneumoniae ATCC 49619 assessed as inhibition of bacterial growth incubated for 18 to 24 hrs; format: functional; conditions: time 18-24 hrs
Erythrocyte = test: Hemolytic activity in rat RBC assessed as hemolysis measured after 20 hrs; format: toxicity, cell-based
Homo sapiens [21] = species on record: Homo sapiens; test: Binding affinity to AgrC-I extra-loop-I (unknown origin) assessed as gibbs free energy change incubated for 10 mins by isothermal titration calorimetry analysis
Homo sapiens [22] = species on record: Homo sapiens; test: Binding affinity to AgrC-I extra-loop-II (unknown origin) assessed as change in entropy incubated for 10 mins by isothermal titration calorimetry analysis
[23] = Binding affinity to AgrC-I extra-loop-III (unknown origin) assessed as dissociation constant incubated for 10 mins by isothermal titration calorimetry analysis
[24] = Binding affinity to AgrC-I extra-loop-I (unknown origin) assessed as dissociation constant incubated for 10 mins by isothermal titration calorimetry analysis
[25] = Binding affinity to AgrC-I extra-loop-II (unknown origin) assessed as dissociation constant incubated for 10 mins by isothermal titration calorimetry analysis
Homo sapiens [26] = species on record: Homo sapiens; test: Binding affinity to AgrC-I extra-loop-III (unknown origin) assessed as change in entropy incubated for 10 mins by isothermal titration calorimetry analysis
Staphylococcus aureus [27] = test: Antivirulence activity against Staphylococcus aureus assessed as downregulation of RNAIII expression level at 1 to 100 uM incubated for 24 hrs by qRT-PCR analysis; format: functional, organism-based; conditions: dose 1-100 µM
Cell membrane [28] = test: Induction of cell membrane damage in Staphylococcus aureus ATCC 6538p assessed as increase in fluorescent intensity incubated for 30 mins by PI staining based flow cytometry assay
Staphylococcus aureus [29] = test: Antivirulence activity against Staphylococcus aureus assessed as downregulation of psm-alpha expression level at 1 to 100 uM incubated for 24 hrs by qRT-PCR analysis; format: functional, organism-based; conditions: dose 1-100 µM
Staphylococcus aureus [30] = test: Antivirulence activity against Staphylococcus aureus assessed as downregulation of hla expression level at 1 to 100 uM incubated for 24 hrs by qRT-PCR analysis; format: functional, organism-based; conditions: dose 1-100 µM
Cell membrane [31] = test: Induction of cell membrane damage in Staphylococcus aureus ATCC 6538p assessed as increase in nucleic acid leakage measured up to 30 mins by UV-spectrophotometer analysis; format: subcellular
Homo sapiens [32] = species on record: Homo sapiens; test: Binding affinity to AgrC-I extra-loop-III (unknown origin) assessed as gibbs free energy change incubated for 10 mins by isothermal titration calorimetry analysis
[33] = Binding affinity to AgrC-I extra-loop-III (unknown origin) assessed as change in enthalpy incubated for 10 mins by isothermal titration calorimetry analysis
[34] = Binding affinity to AgrC-I extra-loop-I (unknown origin) assessed as change in enthalpy incubated for 10 mins by isothermal titration calorimetry analysis
Homo sapiens [35] = species on record: Homo sapiens; test: Binding affinity to AgrC-I extra-loop-I (unknown origin) assessed as change in entropy incubated for 10 mins by isothermal titration calorimetry analysis
[36] = Binding affinity to AgrC-I extra-loop-II (unknown origin) assessed as change in enthalpy incubated for 10 mins by isothermal titration calorimetry analysis
Staphylococcus aureus [37] = test: Inhibition of biofilm formation in Staphylococcus aureus incubated for 24 hrs by crystal violet staining based microscopic analysis; format: functional, organism-based
Homo sapiens [38] = species on record: Homo sapiens; test: Binding affinity to AgrC-I extra-loop-II (unknown origin) assessed as gibbs free energy change incubated for 10 mins by isothermal titration calorimetry analysis
Staphylococcus aureus [39] = test: Inhibition of biofilm formation in Staphylococcus aureus at 0.78 to 1.56 uM incubated for 24 hrs by crystal violet staining based analysis; format: functional, organism-based; conditions: dose 0.78-1.56 µM

Substance: H-IKNAWKAMIKAWY-OH
- MIC [1]: 6.25 µM
- MIC (Streptococcus mutans [2]): 6.25 µM
- MIC (Staphylococcus aureus [3]): 6.25 µM
- MIC (Staphylococcus aureus [4]): 6.25 µM
- Activity (RAW264.7 [5]): inactive
- MBC (Staphylococcus aureus [6]): 12.5 µM
- MIC (Staphylococcus aureus [7]): 6.25 µM
- MIC (Streptococcus mutans [8]): 6.25 µM
- MBC (Streptococcus mutans [9]): 12.5 µM
- MBC (Staphylococcus aureus [10]): 6.25 µM
- MBC [11]: 3.13 µM
- MBC [12]: 12.5 µM
- MBC (Staphylococcus aureus [13]): 6.25 µM
- MBC (Escherichia coli [14]): 6.25 µM
- MIC (Escherichia coli [15]): 6.25 µM
- MBC (Streptococcus mutans [16]): 25 µM
- MIC [17]: 3.13 µM
- CC50 (RAW264.7 [18]): > 125000 nM
- MBC (Streptococcus pneumoniae [19]): 12.5 µM
- MIC (Streptococcus pneumoniae [20]): 12.5 µM

Substance: H-IKNLWKKMIKLWY-OH
- MIC [1]: 3.13 µM
- Activity (Erythrocyte): Non-Toxic
- deltaG (Homo sapiens [21]): -16.4 kcal/mol
- MIC (Streptococcus mutans [2]): 3.13 µM
- MIC (Staphylococcus aureus [3]): 3.13 µM
- MIC (Staphylococcus aureus [4]): 3.13 µM
- -TdeltaS (Homo sapiens [22]): 27.9 kcal/mol
- Kd [23]: 0.001 nM
- Kd [24]: 0.001 nM
- Activity (RAW264.7 [5]): inactive
- MBC (Staphylococcus aureus [6]): 6.25 µM
- Kd [25]: 0.001 nM
- MIC (Staphylococcus aureus [7]): 6.25 µM
- -TdeltaS (Homo sapiens [26]): -15.6 kcal/mol
- MIC (Streptococcus mutans [8]): 6.25 µM
- Activity (Staphylococcus aureus [27]): inactive
- MBC (Streptococcus mutans [9]): 12.5 µM
- MBC (Staphylococcus aureus [10]): 6.25 µM
- Activity (Cell membrane [28]): Active
- Activity (Staphylococcus aureus [29]): inactive
- MBC [11]: 3.13 µM
- Activity (Staphylococcus aureus [30]): inactive
- Activity (Cell membrane [31]): Active
- deltaG (Homo sapiens [32]): -16.4 kcal/mol
- MBC [12]: 6.25 µM
- deltaH [33]: -0.775 kcal/mol
- MBC (Staphylococcus aureus [13]): 3.13 µM
- deltaH [34]: inactive
- MBC (Escherichia coli [14]): 3.13 µM
- MIC (Escherichia coli [15]): 3.13 µM
- -TdeltaS (Homo sapiens [35]): -16.3 kcal/mol
- MBC (Streptococcus mutans [16]): 12.5 µM
- MIC [17]: 1.56 µM
- CC50 (RAW264.7 [18]): > 125000 nM
- MBC (Streptococcus pneumoniae [19]): 12.5 µM
- MIC (Streptococcus pneumoniae [20]): 6.25 µM
- deltaH [36]: -44.2 kcal/mol
- inhibition (Staphylococcus aureus [37]): Active
- deltaG (Homo sapiens [38]): -16.4 kcal/mol

Substance: H-LGAKAGGGIKNLWKKMIKLWY-OH
- MIC [1]: 3.13 µM
- Activity (Erythrocyte): Non-Toxic
- MIC (Streptococcus mutans [2]): 3.13 µM
- MIC (Staphylococcus aureus [3]): 3.13 µM
- MIC (Staphylococcus aureus [4]): 3.13 µM
- MBC (Staphylococcus aureus [6]): 6.25 µM
- inhibition (Staphylococcus aureus [39]): Active
- MIC (Staphylococcus aureus [7]): 6.25 µM
- MIC (Streptococcus mutans [8]): 6.25 µM
- Activity (Staphylococcus aureus [27]): inactive
- MBC (Streptococcus mutans [9]): 3.13 µM
- MBC (Staphylococcus aureus [10]): 3.13 µM
- Activity (Staphylococcus aureus [29]): inactive
- MBC [11]: 3.13 µM
- Activity (Staphylococcus aureus [30]): inactive
- MBC [12]: 6.25 µM
- MBC (Staphylococcus aureus [13]): 3.13 µM
- MBC (Escherichia coli [14]): 12.5 µM
- MIC (Escherichia coli [15]): 6.25 µM
- MBC (Streptococcus mutans [16]): 6.25 µM
- MIC [17]: 1.56 µM
- MBC (Streptococcus pneumoniae [19]): 25 µM
- MIC (Streptococcus pneumoniae [20]): 6.25 µM
